pEC50: −log10 of the molar value.
Columns and labels:
DMPK [1] = assay: Dose-responsive DMPK reduction in DM1 C15 myotubes (EC-50); type: cell-based; conditions: DM1 C15 differentiated myotubes, 72 hours; for pEC50: transfection with Lipofectamine MessengerMax, 0.046-100 nM; for Percent DMPK reduction at 100 nM: transfection
Description: Eighteen oligonucleotides from Example 7 were selected to be evaluated for their ability to reduce DMPK expression in a dose-responsive manner. DM1 C15 myoblasts were prepared as in Example 7 to yield differentiated myotubes in 96-well microplates. After seven days of differentiation, cells were transfected with individual oligonucleotides using Lipofectamine MessengerMax. Each oligonucleotide was tested in triplicate at concentrations of 0.046 nM, 0.137 nM, 0.412 nM, 1.235 nM, 3.704 nM, 11.11 nM, 33.33 nM, and 100 nM by 3-fold serial dilutions using 0.3 μL of Lipofectamine MessengerMax per well.
Following addition of oligonucleotide, cells were incubated for 72 hours prior to harvesting for total RNA. cDNA was synthesized from the total RNA extracts and qPCR was performed to determine expression levels of DMPK using a commercially available Taqman probeset in technical quadruplicate. All qPCR data were analyzed using a traditional ΔΔCT method and were normalized to a plate-based negative control that comprised of cells treated with vehicle control (0.3 μL/well Lipofectamine MessengerMax without any oligonucleotide). Data for each oligonucleotide to was fit to sigmoidal curve in order to determine an effective concentration of each oligonucleotide that provided a half-maximal response (EC-50).

DMPK [2] = assay: DMPK knockdown by transfected antisense oligonucleotides in DM1 C15 myotubes at 0.5 nM and 50 nM; type: cell-based; conditions: 72 hours; for Normalized DMPK Remaining: relative to vehicle control = 1.00
In short: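 DMPK remaining was measured by qPCR 72 h post-transfection, normalized to lipofectamine-only vehicle wells (=1.00). Oligonucleotides were delivered at 0.5 and 50 nM final to DM1 C15 myoblasts differentiated seven days into myotubes, in triplicate.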

[3] = 0.5 nM oligonucleotide, qPCR, relative to vehicle control
[4] = 50 nM oligonucleotide, qPCR, relative to vehicle control

Row | Substance | pEC50 (DMPK [1]) | Percent DMPK reduction at 100 nM (DMPK [1]) [%] | Percent DMPK Reduction (DMPK [2]; [3]) [%] | Normalized DMPK Remaining (DMPK [2]; 0.5 nM oligonucleotide, qPCR) | Percent DMPK Reduction (DMPK [2]; [4]) [%] | Normalized DMPK Remaining (DMPK [2]; 50 nM oligonucleotide, qPCR) | Percent DMPK Reduction (DMPK [2]; 0.5 nM oligonucleotide) [%] | Normalized DMPK Remaining (DMPK [2]; 0.5 nM oligonucleotide) | Percent DMPK Reduction (DMPK [2]; 50 nM oligonucleotide) [%] | Normalized DMPK Remaining (DMPK [2]; 50 nM oligonucleotide)
1 | 257 (CAUGGCAUACACCUGGCCCG; chemistry not given here) [compound 257] | 9.38 | 75.28 | 31.63 | 0.68 | 74.03 | 0.26 | – | – | – | –
2 | 260 (CGAAUGUCCGACAGUGUCUC; chemistry not given here) [compound 260] | 9.74 | 95.93 | 40.21 | 0.60 | 64.42 | 0.36 | – | – | – | –
3 | 270 (GGGCCUGGGACCUCACUGUC; chemistry not given here) [compound 270] | 10.15 | 90.58 | 37.19 | 0.63 | 76.81 | 0.23 | – | – | – | –
4 | 272 (CUCUGCCGCAGGGACAGCCG; chemistry not given here) [compound 272] | 9.38 | 93.66 | 37.09 | 0.63 | 93.59 | 0.06 | – | – | – | –
5 | 278 (CCAUCUCGGCCGGAAUCCGC; chemistry not given here) [compound 278] | 9.36 | 95.42 | 20.50 | 0.79 | 59.76 | 0.40 | – | – | – | –
6 | 280 (UUGCCAUAGGUCUCCGCCGU; chemistry not given here) [compound 280] | 9.43 | 93.70 | 36.30 | 0.64 | 60.12 | 0.40 | – | – | – | –
7 | 286 (GCUUCAUCUUCACUACCGCU; chemistry not given here) [compound 286] | 10.52 | 64.06 | 31.44 | 0.69 | 51.78 | 0.48 | – | – | – | –
8 | 456 (CCUCAGCCUGGCCGAAAGAA; chemistry not given here) [compound 456] | – | – | – | – | – | – | 16.83 | 0.83 | 63.99 | 0.36
9 | 457 (GGGCCUUUUAUUCGCGAGGG; chemistry not given here) [compound 457] | – | – | – | – | – | – | 5.11 | 0.95 | 50.65 | 0.49
10 | 458 (GUCGGCCAGGCGGAUGUGGC; chemistry not given here) [compound 458] | – | – | – | – | – | – | 15.35 | 0.85 | 74.59 | 0.25
11 | 459 (GCUUGCUGCCUUCCCAGGCC; chemistry not given here) [compound 459] | – | – | – | – | – | – | 1.14 | 0.99 | 81.01 | 0.19
12 | 460 (GGUCCAGCAGGAUGUUGUCG; chemistry not given here) [compound 460] | – | – | – | – | – | – | 31.78 | 0.68 | 79.93 | 0.20
13 | 461 (CGGAGACCAUCCCAGUCGAG; chemistry not given here) [compound 461] | – | – | – | – | – | – | 14.08 | 0.86 | 79.93 | 0.20
14 | 462 (UCUGCCUCGCGUAGUGACU; chemistry not given here) [compound 462] | – | – | – | – | – | – | 3.53 | 0.96 | 86.86 | 0.13
15 | 463 (AGGUAGUUCUCAUCCUGGAA; chemistry not given here) [compound 463] | – | – | – | – | – | – | 7.36 | 0.93 | 62.62 | 0.37
16 | 464 (UCCUUGUAGUGGACGAUCUU; chemistry not given here) [compound 464] | – | – | – | – | – | – | 12.96 | 0.87 | 84.87 | 0.15
17 | 465 (GCAUCCAAAACGUGGAUUGG; chemistry not given here) [compound 465] | – | – | – | – | – | – | 2.54 | 0.97 | 72.69 | 0.27

Row | Substance | pEC50 (DMPK [1]) | Percent DMPK reduction at 100 nM (DMPK [1]) [%] | Percent DMPK Reduction (DMPK [2]; [3]) [%] | Normalized DMPK Remaining (DMPK [2]; 0.5 nM oligonucleotide, qPCR) | Percent DMPK Reduction (DMPK [2]; [4]) [%] | Normalized DMPK Remaining (DMPK [2]; 50 nM oligonucleotide, qPCR) | Percent DMPK Reduction (DMPK [2]; 0.5 nM oligonucleotide) [%] | Normalized DMPK Remaining (DMPK [2]; 0.5 nM oligonucleotide) | Percent DMPK Reduction (DMPK [2]; 50 nM oligonucleotide) [%] | Normalized DMPK Remaining (DMPK [2]; 50 nM oligonucleotide)
18 | 466 (GUCCAGCAGGAUGUGUCGG; chemistry not given here) [compound 466] | – | – | – | – | – | – | 30.00 | 0.70 | 82.64 | 0.17
19 | 467 (AGCUCCCGCAGCGUCACCUC; chemistry not given here) [compound 467] | – | – | – | – | – | – | 13.72 | 0.86 | 80.40 | 0.20
20 | 468 (CGAGAGCAGCGCAAGUGAGG; chemistry not given here) [compound 468] | – | – | – | – | – | – | -2.19 | 1.02 | 37.11 | 0.63
21 | 469 (CAGGGAAAGCGCCUCCGAUA; chemistry not given here) [compound 469] | – | – | – | – | – | – | 11.10 | 0.89 | 91.59 | 0.08
22 | 470 (AUUUCAUAGGCGAAUACACC; chemistry not given here) [compound 470] | – | – | – | – | – | – | -4.54 | 1.05 | 44.15 | 0.56
23 | 471 (UCGGCCAGGCGGAUGUGGCC; chemistry not given here) [compound 471] | – | – | – | – | – | – | 26.53 | 0.73 | 83.04 | 0.17
24 | 472 (AAGGGAUGUGUCCGGAAGUC; chemistry not given here) [compound 472] | – | – | – | – | – | – | 10.37 | 0.90 | 73.52 | 0.26
25 | 473 (CUUGUAGUGGACGAUCUUGC; chemistry not given here) [compound 473] | – | – | – | – | – | – | 24.09 | 0.76 | 89.16 | 0.11
26 | 474 (AGUCGGCCAGGCGGAUGUGG; chemistry not given here) [compound 474] | – | – | – | – | – | – | 6.15 | 0.94 | 67.44 | 0.33
27 | 475 (GCCUCAGCCUGGCCGAAAGA; chemistry not given here) [compound 475] | – | – | – | – | – | – | -4.82 | 1.05 | 63.11 | 0.37
28 | 476 (AGCGUCACCUCGGCCUCAGC; chemistry not given here) [compound 476] | – | – | – | – | – | – | 22.10 | 0.78 | 64.70 | 0.35
29 | 477 (CAGCGGCAGAGAGAGGUGCT; chemistry not given here) [compound 477] | – | – | – | – | – | – | 4.49 | 0.96 | 86.00 | 0.14
30 | 478 (CCAGCGGCAGAGAGAGGUGC; chemistry not given here) [compound 478] | – | – | – | – | – | – | 3.23 | 0.97 | 84.55 | 0.15
31 | 479 (UUGUAGUGGACGAUCUUGCC; chemistry not given here) [compound 479] | – | – | – | – | – | – | 17.22 | 0.83 | 81.05 | 0.19
32 | 480 (AGGGAAAGCGCCUCCGAUAG; chemistry not given here) [compound 480] | – | – | – | – | – | – | -1.12 | 1.01 | 75.50 | 0.25
33 | 481 (GGGAAAGCGCCUCCGAUAGG; chemistry not given here) [compound 481] | – | – | – | – | – | – | 10.02 | 0.90 | 76.79 | 0.23

— patent publication US20230144436A1, “MUSCLE TARGETING COMPLEXES AND USES THEREOF FOR TREATING MYOTONIC DYSTROPHY” (Dyne Therapeutics, Inc., priority 2020, published 2023)
